Results from patent US20230340417A1, “DEFINED MATRIX FOR THE DIFFERENTIATION OF ISLETS” (Washington University, priority 2022, published 2023).
Entries after “also recorded” stand apart in the source; their conditions may differ.

B1: vitronectin: extracellular matrix protein tested as plate coating for differentiation (protein, UniProt P04004 20-478, looked up)
Vitronectin: DQESCKGRCTEGFNVDKKCQCDELCSYYQSCCTDYTAECKPQVTRGDVFTMPEDEYTVYDDGEEKNNATVHEQVGGPSLTSDLQAQSKGNPEQTPVLKPEEEAPAPEVGASKPEGIDSRPETLHPGRPQPPAEEELCSGKPFDAFTDLKNGSLFAFRGQYCYELDEKAVRPGYPKLIRDVWGIEGPIDAAFTRINCQGKTYLFKGSQYWRFEDGVLDPDYPRNISDGFDGIPDNVDAALALPAHSYSGRERVYFFKGKQYWEYQFQHQPSQEECEGSSLSAVFEHFAMMQRDSWEDIFELLFWGRTSAGTRQPQFISRDWHGVPGQVDAAMAGRIYISGMAPRPSLAKKQRFRHRNRKGYRSQRGHSRGRNQNSRRPSRATWLSLFSSEESNLGANNYDDYRMDWLVPATCEPIQSVFFFSGDKYYRVNLRTRRVDTVDPPYPRSIAQYWLGCPAPGHL

Legend:
[1] = test system: human pluripotent stem cells; experiment: SC-β cell differentiation on different extracellular matrix proteins; format: cell-based; conditions: for outcome of differentiation of stem cells to SC-β cells: cells plated on the ECM when seeding the differentiation
Protocol: (§1) Experiment goal: test if our SC-β cell differentiation method works with different extracellular matrix proteins. Stem cells were propagated on Matrigel as normal. Cells were plated on the different ECMs when seeding the differentiations. For the combinations of laminin 111 and collagen IV, the total protein concentration was kept the same. The ratio of these was changed from 3:1, 1:1, and 1:3. Some of the ECMs induced the cells to form clusters on the plate in stage 6, so some clusters were scrapped off instead of aggregating them for comparison. The differentiation protocol utilized was previously published (Hogrebe et al Nature Biotechnology 2020; Hogrebe et al Nature Protocols 2021; and WO 2019/222487) and modified to include different ECM proteins.

[2] = test system: stem cells; experiment: Adhesion of cells to plates coated with different extracellular matrix proteins during differentiation; format: cell-based, human; conditions: for adherence of seeding stem cells to the ECM to start differentiation: FIG. 11; for attachment of cells to the plate in early differentiation stages: stage 1 and 2, ECM protein used alone; for time at which cells came off the plate: stage/day of protocol (s = stage, d = day)
Protocol: as §1

Molecule	outcome of differentiation of stem cells to SC-β cells [1]	adherence of seeding stem cells to the ECM to start differentiation [2]	attachment of cells to the plate in early differentiation stages [2]	adhesion of endocrine cells to the plate ([2]; stage 6)	time at which cells came off the plate [2]	attachment of cells to the plate in early differentiation stages ([2]; listed as collagen I)	cell types obtained ([1]; differentiations done on vitronectin only, FIG. 12)
fibronectin	failed	do not effectively adhere					
collagen IV: extracellular matrix protein tested as plate coating, alone or combined with laminin 111			detached completely; also recorded: monolayer of stem cells detaching from the plate	makes the endocrine cells stick to the plate	started coming off on s1d3		
collagen 1: extracellular matrix protein tested as plate coating for differentiation		weren't as adhesive	detached completely		came off on s2d1	monolayer of stem cells detaching from the plate	
B1	failed	do effectively adhere					a lot of off-target cell types and no endocrine cells
